Measurements taken from PubChem BioAssay (NCI).
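Method: 48-hour compound exposure of cells in 96-well plates, five concentrations, linear interpolation of endpoints. TGI: total growth inhibition.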

How the values were obtained:
Experiment in all cases: inhibition of tumour cell growth, NCI panel, 48 h
CCRF-CEM leukemia = tested on: CCRF-CEM leukemia
HL-60(TB) leukemia = tested on: HL-60(TB) leukemia
KM20L2 colon = tested on: KM20L2 colon
M19-MEL melanoma = tested on: M19-MEL melanoma
NCI-H460 lung = tested on: NCI-H460 lung
RXF 393 renal = tested on: RXF 393 renal
UO-31 renal = tested on: UO-31 renal
BT-549 breast = tested on: BT-549 breast
MCF7 breast = tested on: MCF7 breast
MDA-N = tested on: MDA-N
PC-3 prostate = tested on: PC-3 prostate
DU-145 prostate = tested on: DU-145 prostate
NCI-H226 lung = tested on: NCI-H226 lung

Compound	TGI (CCRF-CEM leukemia) [µM]	TGI (HL-60(TB) leukemia) [µM]	TGI (KM20L2 colon) [µM]	TGI (M19-MEL melanoma) [µM]	TGI (NCI-H460 lung) [µM]	TGI (RXF 393 renal) [µM]	TGI (UO-31 renal) [µM]	TGI (BT-549 breast) [µM]	TGI (MCF7 breast) [µM]	TGI (MDA-N) [µM]	TGI (PC-3 prostate) [µM]	TGI (DU-145 prostate) [µM]	TGI (NCI-H226 lung) [µM]
O=C1C(Cl)N(c2c(Cl)cccc2Cl)C1c1c[nH]c2ccccc12 (stereo not given)	> 100	> 100	> 100	> 100	> 100	> 100	> 100	–	–	–	–	–	–
O=[N+]([O-])c1ccc(SN=S=NSc2cccc(SN=S=NSc3ccc([N+](=O)[O-])cc3)c2)cc1	42.5	83.7	–	–	> 100	–	70.2	40.6	75	98.8	40.1	–	–
CSc1ncnc2c1cnn2Cc1cnnn1COCC(O)CO (stereo not given)	> 100	> 100	–	–	–	–	> 100	> 100	> 100	> 100	> 100	> 100	> 100
C/C(=C/C(=O)Nc1ccccc1)Nc1onc(C)c1C	> 100	> 100	> 100	> 100	> 100	> 100	> 100	–	> 100	–	–	–	> 100
Brc1ccc(C2C3CSc4ccccc4C3=NN2c2ccccc2)cc1 (stereo not given)	> 100	> 100	–	–	> 100	> 100	> 100	> 100	> 100	> 100	> 100	> 100	> 100
O=NN1C(c2ccccc2)CNC(=O)CC1c1ccccc1 (stereo not given)	> 100	> 68.8	63.5	> 100	> 100	81.1	> 83.6	–	> 100	–	–	–	> 100
CSc1ncnc2c1cnn2Cc1cn(COCCO)nn1	> 100	> 100	–	–	> 100	> 100	> 100	> 100	> 100	39.6	> 100	> 100	> 100
O=C1OC(c2ccccc2)=NC1c1ccccc1 (stereo not given)	> 100	> 100	–	–	> 100	> 100	> 100	> 100	> 100	> 100	> 100	> 100	> 100
CN(C)CCNc1ccc2ncn3c4ccccc4c(=O)c1c23	> 100	> 100	13.6	12.6	6.86	–	17.5	–	–	–	–	–	6.05
C1CNOCCCONCCCNOCCCONC1	> 100	> 100	–	–	94	64.2	> 100	> 100	> 100	> 100	86	> 100	> 100
N#C/C(=C\c1ccncc1)c1csc2ccccc12	55.8	35.5	54.6	> 91.2	> 69	> 83.1	> 83.2	–	> 96.7	–	–	–	> 77.1
S=c1sc2c(s1)SC(c1ccccc1)CS2 (stereo not given)	> 100	> 100	> 100	> 100	> 100	91.5	> 100	–	> 100	–	–	–	> 100
O=C(NN1C(=O)C(Cl)C1c1ccccc1O)c1ccccc1O (stereo not given)	70.6	43.3	> 100	–	> 100	> 100	63.8	–	–	–	–	–	–
O=[N+]([O-])C(=C/c1ccccc1)/C(=C\c1ccccc1)[N+](=O)[O-]	7.69	–	–	–	33	33.5	31.3	31.4	34.4	33.1	44.7	29.7	47.3
Cc1c(O)c(=O)ccn1CCN	> 100	–	> 100	> 100	> 100	> 100	> 100	–	–	–	–	–	> 100
NS(=O)(=O)c1ccc(NC(=O)N/N=C/c2ccccc2O)cc1	> 100	> 100	–	–	> 100	> 100	> 100	> 100	> 100	70.2	> 100	> 100	> 100
